The target in data set [1] is T1, recombinant ROCK1 (amino acids 1-535) (Homo sapiens, UniProt Q13464).
T1 construct: recombinant ROCK1 (amino acids 1-535) and ROCK2; purchased ThermoFisher Scientific
The data set is described as follows: Z'-lyte kinase assay, ROCK1. It is filed as biochemical. Here is the method:
(§1) Determination of compounds ROCK inhibitory activity in vitro (Z'lyte assay): recombinant ROCK1 (amino acids 1-535) and ROCK2 (amino acids 1-552) proteins were purchased from ThermoFisher Scientific. Compounds activities were measured by Z′-lyte kinase kit (ThermoFisher Scientific) and IC50s were calculated.
(§2) Table 2, below, provides in vitro and cellular inhibition of ROCKs by compounds of the invention. Compounds activities were measured by Z′-lyte kinase kit (ThermoFisher Scientific). […] IC50s were calculated using the GraphPad Prism software with kinase activities data that were collected from points 9 serial dilution of compounds treatment. The ROCK inhibition in A7R5 cells and NIH3T3 (Acta2-Luc) cells was performed as described above.

Data set [2] relates to phospho-myosin light chains (ppMlc, Thr18/Ser19) in A7R5 cells. The data set is described as follows: A7R5 in-cell ELISA, phospho-myosin light chain. Format: cell-based, rat. The note with it: for IC50: Rattus norvegicus, A7R5 cells. The procedure: Determination of compounds ROCK inhibitory activity in A7R5 cells: rat aortic smooth muscle cell line A7R5 cells were maintained and treated in DMEM medium with 10% of fetal bovine serum. Cells were seeded with density of 5,000 cells/well in 96-well plates for 24 hours and subsequently treated 90 min with testing compounds. Cells were then fixed and processed according to the In-Cell ELISA Colorimetric Detection Kit manual (Thermo Scientific). Cellular phospho-myosin light chains (ppMlc, Thr18/Ser19) levels were determined after treatments of DMSO control or test compounds using the In-Cell ELISA kit. The percent inhibition rate was calculated by applying the data obtained with 1 μM (or 10 μM) compound treatment to the formula, [1-(compound/DMSO)]×100%. ppMlc data obtained with 9 points 2-fold serial dilution of compounds were applied to the nonlinear regression curve fit function of the GraphPad Prism software to calculate the In cell IC50s.
A7R5 cells were treated with 9 points 2 fold serial dilution of compounds and ppMlc (T18/S19) levels were determined in order to calculate cellular IC50s of the compounds.
Two steps of measurements were adopted for pMLC/A7R5 IC50. Percent inhibition rates were calculated with a single dose (1 μM or 10 μM) compounds treatment to screen for active compounds and then cellular IC50s were measured only in compounds that have over 50% of inhibition rates.

Data set [3] concerns luciferase reporter driven by the human ACTA2 gene promoter in NIH3T3 cells. The data set is described as follows: NIH3T3 cells Acta2-promoter driven-luciferase assay. Format: cell-based. The settings on record: plus TGF 1, 24 hr, read-out: NIH3T3, Acta2-luc, IC50. Here is the method: NIH3T3 cells Acta2-promoter driven-luciferase assay: A NIH3T3 cell line stably expressing a luciferase reporter driven by the human ACTA2 gene promoter (−1000-1 bp) was established (NIH3T3-Acta2-luciferase). The cells were plated to confluence and treated with the test compounds plus TGF 1 for 24 hr. Cells were then lysed and luciferase activity was measured using the LightSwitch luciferase kit from Active Motif.

In data set [4] the target is T2, recombinant ROCK2 (amino acids 1-552) (Homo sapiens, UniProt O75116).
T2 construct: ROCK2 (amino acids 1-552) proteins were purchased from ThermoFisher Scientific; purchased ThermoFisher Scientific
T2 sequence (O75116 1-552): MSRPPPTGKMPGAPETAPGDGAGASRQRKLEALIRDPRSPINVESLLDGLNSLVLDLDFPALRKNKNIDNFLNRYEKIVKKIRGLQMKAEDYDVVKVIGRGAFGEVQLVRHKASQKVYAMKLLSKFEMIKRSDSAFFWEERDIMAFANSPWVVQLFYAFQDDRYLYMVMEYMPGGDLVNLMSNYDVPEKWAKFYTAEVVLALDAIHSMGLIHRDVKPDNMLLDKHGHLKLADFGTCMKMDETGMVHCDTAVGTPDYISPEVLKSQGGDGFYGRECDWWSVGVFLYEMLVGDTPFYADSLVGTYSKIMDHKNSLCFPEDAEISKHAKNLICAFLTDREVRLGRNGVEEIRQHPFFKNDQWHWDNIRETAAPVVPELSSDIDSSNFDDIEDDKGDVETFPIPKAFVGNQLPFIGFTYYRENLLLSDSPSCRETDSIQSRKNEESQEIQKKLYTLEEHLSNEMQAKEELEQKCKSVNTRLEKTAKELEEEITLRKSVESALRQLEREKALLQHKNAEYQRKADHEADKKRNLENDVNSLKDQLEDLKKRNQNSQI
Kind of data set: Z'-lyte kinase assay, ROCK2. Format: biochemical. The note with it: for inhibition at 0.5 µM / inhibition at 1 µM / inhibition at 3 µM: read-out: ROCK2 % inh. The procedure: as §1, §2

Data set [5] in a line: Brain and plasma concentrations in mouse by HPLC/MS/MS after 2.5 mg/kg IV. Format: in vivo. The settings on record: for concentration at 0.25 h / concentration at 2 h: iv; for Kp at 0.25 h / Kp at 2 h: brain/plasma; for Kp at 0.25 h: read-out: Mean Brain/Plasma Ratio at 0.25 hr; for Kp at 2 h: read-out: Mean Brain/Plasma Ratio at 2 hr. Here is the method:
Brain and plasma concentrations of select ROCK inhibitors were also evaluated in mouse by HPLC/MS/MS at 15 min and 2 hrs following 2.5 mg/kg IV drug administration.

The subject of data set [6] is sAPPP. The note with it: direct i.p. injection into hippocampus, rodent model of AD; cited from earlier work.
The conditions of data set [7]: cited from earlier work.
[8] abbreviates: 1.5 h, 90 min, read-out: pMLC IC50 A7R5.
The mark [9] stands for this setting: ppMlc (T18/S19), 9 points 2 fold serial dilution, read-out: ppMIc IC50.
Where [10] appears, read: brain, 2.5 mg/kg, read-out: Mean Conc. at 0.25 hr, Brain.
Where [11] appears, read: plasma, 2.5 mg/kg, read-out: Mean Conc. at 0.25 hr, Plasma.
Setting [12] is: plasma, 2.5 mg/kg, read-out: Mean Conc. at 2 hr, Plasma.

Like-named read-outs stand apart in the source and are kept apart here.

T1 sequence (Q13464 1-535): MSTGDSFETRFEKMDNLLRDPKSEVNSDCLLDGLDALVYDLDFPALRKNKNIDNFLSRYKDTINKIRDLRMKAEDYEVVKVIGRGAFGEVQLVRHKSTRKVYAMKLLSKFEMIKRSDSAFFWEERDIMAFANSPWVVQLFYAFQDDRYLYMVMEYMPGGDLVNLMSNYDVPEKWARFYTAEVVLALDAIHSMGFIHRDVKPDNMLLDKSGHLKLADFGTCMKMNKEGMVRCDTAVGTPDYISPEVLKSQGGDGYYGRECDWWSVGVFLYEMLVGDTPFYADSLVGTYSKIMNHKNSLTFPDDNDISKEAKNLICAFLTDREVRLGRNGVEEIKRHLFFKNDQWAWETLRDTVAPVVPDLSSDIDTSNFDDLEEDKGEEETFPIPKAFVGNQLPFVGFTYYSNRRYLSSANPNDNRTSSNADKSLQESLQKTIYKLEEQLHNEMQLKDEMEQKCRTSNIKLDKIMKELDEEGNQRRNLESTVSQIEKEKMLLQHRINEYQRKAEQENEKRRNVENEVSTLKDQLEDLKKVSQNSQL

With `CNC(C(=O)Nc1ccc2[nH]ncc2c1)c1ccc(Oc2ccc(OC)cc2)cc1` (stereo not shown) [Example 14, N-(1H-indazol-5-yl)-2-(4-(4-methoxyphenoxy)phenyl)-2-(methylamino)acetamide], the IC50 (commonly the concentration needed to halve the response being measured) in data set [1] stood at 0.0326 µM; in data set [2] (setting [8]), 0.207 µM; in data set [2] (setting [9]), 0.207 µM; in data set [3] it was 0.678 µM. The inhibition at 0.5 µM in data set [4] was found to be 100%.
With `CNC(C(=O)Nc1ccc2[nH]ncc2c1)c1ccc(Oc2cccc(OC)c2)cc1` (stereo not shown) [Example 15, N-(1H-indazol-5-yl)-2-(4-(3-methoxyphenoxy)phenyl)-2-(methylamino)acetamide], the IC50 in data set [1] was 0.013 µM; in data set [2] (setting [8]), 0.124 µM; in data set [2] (setting [9]), 0.124 µM; in data set [3], 0.219 µM; in data set [4], 0.01 µM. For the same compound, the concentration at 0.25 h worked out at 853 ng/g in data set [5] (setting [10]) and 0.394 µg/mL in data set [5] (setting [11]). The concentration at 2 h in data set [5] (brain, 2.5 mg/kg, read-out: Mean Conc. at 2 hr, Brain) came out at 288 ng/g; in data set [5] (setting [12]), 0.0414 µg/mL. Besides, the Kp at 0.25 h in data set [5] turned out to be 2.17. Also, the Kp at 2 h in data set [5] turned out to be 6.99.
For `CNC(C(=O)Nc1ccc2[nH]ncc2c1)c1ccc(Cl)cc1` (stereo not shown) [Example 16, 2-(4-chlorophenyl)-N-(1H-indazol-5-yl)-2-(methylamino)acetamide], the IC50 came out at 0.0038 µM in data set [1], 0.252 µM in data set [2] (setting [8]), 0.915 µM in data set [3] and 0.015 µM in data set [4]. The inhibition at 3 µM in data set [1] (read-out: ROCK1 % inh) amounted to 93.2%. In addition, the “cellular ROCK inhibition compared with Comparative Example 2” value in data set [2] (phosphorylation of the ROCK target pMLC in A7R5 cells) is “enhanced”. In addition, the inhibition at 1 µM in data set [4] turned out to be 99%.
Consider `CNC(C(=O)Nc1ccc2[nH]ncc2c1)c1ccc(OC)cc1` (stereo not shown) [Example 24, N-(1H-indazol-5-yl)-2-(4-methoxyphenyl)-2-(methylamino)acetamide], for which the IC50 in data set [1] was 0.00389 µM; in data set [2] (setting [8]) it was 0.224 µM; in data set [3] it was 0.321 µM; in data set [4], 0.0036 µM. Further, the inhibition at 3 µM in data set [1] (read-out: ROCK1 % inh) came to 99%; in data set [4], 98.8%.
Regarding `CCNC(C(=O)Nc1ccc2[nH]ncc2c1)c1ccc(OC)cc1` (stereo not shown) [Example 26, 2-(ethylamino)-N-(1H-indazol-5-yl)-2-(4-methoxyphenyl)acetamide], the IC50 in data set [1] was determined as 0.024 µM; in data set [2] (setting [8]) it was 0.261 µM; in data set [3] it was 0.845 µM; in data set [4], 0.012 µM. Also, the inhibition at 3 µM in data set [1] (read-out: ROCK1 % inh) was 99%; in data set [4], 98.8%.
On to `CCNC(C(=O)Nc1ccc2[nH]ncc2c1)c1ccc(C)cc1` (stereo not shown) [Example 30, 2-(ethylamino)-N-(1H-indazol-5-yl)-2-(p-tolyl)acetamide], for which the IC50 turned out to be 0.016 µM in data set [1], 0.502 µM in data set [2] (setting [8]), 0.96 µM in data set [3] and 0.013 µM in data set [4]. Further, the inhibition at 3 µM in data set [1] (read-out: ROCK1 % inh) was found to be 99%; in data set [4], 98.8%.
With `CNC(C(=O)Nc1ccc2[nH]ncc2c1)c1cccc(OC)c1` (stereo not shown) [Example 41, N-(1H-indazol-5-yl)-2-(3-methoxyphenyl)-2-(methylamino)acetamide], the IC50 amounted to 0.0032 µM in data set [1], 0.304 µM in data set [2] (setting [8]), 0.539 µM in data set [3] and 0.017 µM in data set [4]. Further, the “Mean Conc. at 0.25 hr, Brain” value in data set [5] (2.5 mg/kg) came to 541 ng/g. For the same compound, the concentration at 0.25 h in data set [5] (setting [10]) stood at 566 ng/g; in data set [5] (setting [11]), 0.427 µg/mL. For the same compound, the Kp at 0.25 h in data set [5] is 1.33. In data set [5], the Kp at 2 h stood at 8.41. Moreover, the concentration at 2 h in data set [5] (setting [12]) came out at 0.00214 µg/mL. Besides, the inhibition at 1 µM in data set [4] turned out to be 99.5%.
For the compound `CNC(C(=O)Nc1ccc2[nH]ncc2c1)c1cccc(Cl)c1` (stereo not shown) [Example 42, 2-(3-chlorophenyl)-N-(1H-indazol-5-yl)-2-(methylamino)acetamide], the IC50 stood at 0.0088 µM in data set [1], 0.454 µM in data set [2] (setting [8]), 0.882 µM in data set [3] and 0.016 µM in data set [4].
On to `CNC(C(=O)Nc1ccc2[nH]ncc2c1)c1ccccc1Cl` (stereo not shown) [Example 47, 2-(2-chlorophenyl)-N-(1H-indazol-5-yl)-2-(methylamino)acetamide], for which the IC50 was 0.0083 µM in data set [1]; 0.461 µM in data set [2] (setting [8]); 0.461 µM in data set [2] (setting [9]); 0.659 µM in data set [3]; 0.135 µM in data set [4].
On to `CCNC(C(=O)Nc1ccc2[nH]ncc2c1)c1cccc(Cl)c1` (stereo not shown) [Example 58, 2-(3-chlorophenyl)-2-(ethylamino)-N-(1H-indazol-5-yl)acetamide], for which the inhibition at 0.5 µM in data set [1] (@ 0.5 μM, read-out: ROCK1 % inh) was 85%; in data set [4], 61%. Besides, the results for the IC50 in data set [2] (setting [8]), in data set [3] and in data set [4] were 0.722 µM, 1.09 µM and 0.064 µM, respectively.
With `CN(C)CCOc1cc(-c2cn[nH]c2)ccc1NC(=O)C1COc2ccccc2O1` (stereo not shown) [SR3677], the “effect on sAPPP” value in data set [6] was “lowering sAPPP”. In addition, in data set [7] (in vivo), the brain penetration entry is recorded as “lack of brain penetration”. The half-life – broadly, how long it takes for the measured level to halve – in data set [7] (oral PK properties) was less than 1 h. In addition, in data set [7] (oral), the “F (oral)” value was 5%.

Values taken from patent US11926596B2, “Inhibitors of Rho associated coiled-coil containing protein kinase” (KADMON CORPORATION, LLC, priority 2017, dated 2024).
